Source: publication PMC5218480 (PLoS ONE, 2017)

System: MV-4-11 cells
Test: Gene expression microarray analysis (Affymetrix PrimeView) and GSEA
Type: cell-based, human
Set-up: RFU PODN (11730768_x_at) / Fold change /veh PODN (11730768_x_at) / RFU LINC00158 (11744669_a_at) / Fold change /veh LINC00158 (11744669_a_at) / RFU DUSP10 (11751237_a_at) / Fold change /veh DUSP10 (11751237_a_at) / RFU ID3 (11757404_x_at) / Fold change /veh ID3 (11757404_x_at) / RFU PLEKHG5 (11737974_s_at) / Fold change /veh PLEKHG5 (11737974_s_at) / RFU LRRC4B (11730491_at) / Fold change /veh LRRC4B (11730491_at) / RFU GIMAP4 (11747438_a_at) / Fold change /veh GIMAP4 (11747438_a_at) / RFU KRT8 (11758183_x_at) / Fold change /veh KRT8 (11758183_x_at) / RFU CNN1 (11734310_a_at) / Fold change /veh CNN1 (11734310_a_at) / RFU VPS37D (11726825_at) / Fold change /veh VPS37D (11726825_at) / RFU C10orf10 (11716522_x_at) / Fold change /veh C10orf10 (11716522_x_at) / RFU KIR2DL2 /// KIR2DL4 /// KIR2DL5A /// KIR2DL5B /// KIR2DS1 /// KIR2DS2 /// KIR2DS3 /// KIR2DS4 /// KIR3DL3 /// KIR3DL3 /// KIR3DS1 (11738374_at) / Fold change /veh KIR2DL2 /// KIR2DL4 /// KIR2DL5A /// KIR2DL5B /// KIR2DS1 /// KIR2DS2 /// KIR2DS3 /// KIR2DS4 /// KIR3DL3 /// KIR3DL3 /// KIR3DS1 (11738374_at) / RFU C1QL1 (11718748_at) / Fold change /veh C1QL1 (11718748_at) / RFU TMPRSS4 (11747572_a_at) / Fold change /veh TMPRSS4 (11747572_a_at) / RFU HAMP (11756126_x_at) / Fold change /veh HAMP (11756126_x_at) / RFU RNFT2 (11725882_a_at) / Fold change /veh RNFT2 (11725882_a_at) / RFU NR4A2 (11747474_a_at) / Fold change /veh NR4A2 (11747474_a_at) / RFU ABCC12 (11746883_a_at) / Fold change /veh ABCC12 (11746883_a_at) / RFU TMEM136 (11760407_x_at) / Fold change /veh TMEM136 (11760407_x_at) / RFU CLDN22 /// WWC2 (11732394_at) / Fold change /veh CLDN22 /// WWC2 (11732394_at) / RFU HLA-DPB1 (11760878_x_at) / Fold change /veh HLA-DPB1 (11760878_x_at) / RFU SPINT1 (11716480_a_at) / Fold change /veh SPINT1 (11716480_a_at) / RFU GAP43 (11754022_s_at) / Fold change /veh GAP43 (11754022_s_at) / RFU A4GNT (11735810_at) / Fold change /veh A4GNT (11735810_at) / RFU PRB3 (11715151_x_at) / Fold change /veh PRB3 (11715151_x_at) / RFU TUBB4B (11761932_at) / Fold change /veh TUBB4B (11761932_at) / RFU CAPN14 (11732068_a_at) / Fold change /veh CAPN14 (11732068_a_at) / RFU TMCC2 (11721928_a_at) / Fold change /veh TMCC2 (11721928_a_at) / RFU IRGQ (11745062_a_at) / Fold change /veh IRGQ (11745062_a_at) / RFU FAM174B (11720279_a_at) / Fold change /veh FAM174B (11720279_a_at) / RFU TMPRSS4 (11748680_a_at) / Fold change /veh TMPRSS4 (11748680_a_at) / RFU FAM212B (11763350_a_at) / Fold change /veh FAM212B (11763350_a_at) / RFU PLEKHG5 (11743358_a_at) / Fold change /veh PLEKHG5 (11743358_a_at) / RFU ZSCAN30 (11745921_a_at) / Fold change /veh ZSCAN30 (11745921_a_at) / RFU CMKLR1 (11741424_a_at) / Fold change /veh CMKLR1 (11741424_a_at) / RFU LOC101060620 /// MAPK8IP1 (11723275_at) / Fold change /veh LOC101060620 /// MAPK8IP1 (11723275_at) / RFU SPTSSB (11747773_x_at) / Fold change /veh SPTSSB (11747773_x_at) / RFU PRSS12 (11739890_at) / Fold change /veh PRSS12 (11739890_at) / RFU BIN1 (11741810_x_at) / Fold change /veh BIN1 (11741810_x_at) / RFU WNT11 (11732464_a_at) / Fold change /veh WNT11 (11732464_a_at) / RFU C10orf10 (11716521_a_at) / Fold change /veh C10orf10 (11716521_a_at) / RFU C5orf56 (11738089_at) / Fold change /veh C5orf56 (11738089_at) / RFU CYB561 (11721691_x_at) / Fold change /veh CYB561 (11721691_x_at) / RFU ANKRD19P (11752326_a_at) / Fold change /veh ANKRD19P (11752326_a_at) / RFU OR2T12 /// OR2T33 /// OR2T8 (11738714_s_at) / Fold change /veh OR2T12 /// OR2T33 /// OR2T8 (11738714_s_at) / RFU VCAN (11748164_a_at) / Fold change /veh VCAN (11748164_a_at) / RFU JSRP1 (11732532_at) / Fold change /veh JSRP1 (11732532_at) / RFU KRTAP10-11 (11738290_x_at) / Fold change /veh KRTAP10-11 (11738290_x_at) / RFU MYO3A (11730013_a_at) / Fold change /veh MYO3A (11730013_a_at) / RFU EBF3 (11725865_a_at) / Fold change /veh EBF3 (11725865_a_at) / RFU CAMK2N1 (11719241_x_at) / Fold change /veh CAMK2N1 (11719241_x_at) / RFU C5orf56 (11738088_a_at) / Fold change /veh C5orf56 (11738088_a_at) / RFU OLFML3 (11715873_a_at) / Fold change /veh OLFML3 (11715873_a_at) / RFU LOC100653217 /// NTM (11731650_a_at) / Fold change /veh LOC100653217 /// NTM (11731650_a_at) / RFU MAPK11 (11762145_a_at) / Fold change /veh MAPK11 (11762145_a_at) / RFU FIZ1 (11724087_x_at) / Fold change /veh FIZ1 (11724087_x_at) / RFU OASL (11726364_x_at) / Fold change /veh OASL (11726364_x_at) / RFU SOX15 (11748057_x_at) / Fold change /veh SOX15 (11748057_x_at) / RFU CD79A (11719716_a_at) / Fold change /veh CD79A (11719716_a_at) / RFU HIST1H1D (11736915_at) / Fold change /veh HIST1H1D (11736915_at) / RFU CASKIN2 (11723855_a_at) / Fold change /veh CASKIN2 (11723855_a_at) / RFU LOC730098 (11760151_x_at) / Fold change /veh LOC730098 (11760151_x_at) / RFU OR4N2 (11742367_at) / Fold change /veh OR4N2 (11742367_at) / RFU PRRT2 (11749266_a_at) / Fold change /veh PRRT2 (11749266_a_at) / RFU SNX32 (11753110_a_at) / Fold change /veh SNX32 (11753110_a_at) / RFU CDHR5 (11726645_a_at) / Fold change /veh CDHR5 (11726645_a_at) / RFU RCAN1 (11760418_a_at) / Fold change /veh RCAN1 (11760418_a_at) / RFU FAM167A (11723789_a_at) / Fold change /veh FAM167A (11723789_a_at) / RFU FAM26E (11764081_at) / Fold change /veh FAM26E (11764081_at) / RFU ISYNA1 (11749810_s_at) / Fold change /veh ISYNA1 (11749810_s_at) / RFU ACY1 (11761880_at) / Fold change /veh ACY1 (11761880_at) / RFU 11764098_at / Fold change /veh 11764098_at / RFU SAMD14 (11745864_x_at) / Fold change /veh SAMD14 (11745864_x_at) / RFU NPB (11741838_a_at) / Fold change /veh NPB (11741838_a_at) / RFU TMPRSS6 (11731388_a_at) / Fold change /veh TMPRSS6 (11731388_a_at) / RFU KRTAP10-2 (11738614_at) / Fold change /veh KRTAP10-2 (11738614_at) / RFU ARHGAP8 /// PRR5-ARHGAP8 (11727945_x_at) / Fold change /veh ARHGAP8 /// PRR5-ARHGAP8 (11727945_x_at) / RFU KRTAP5-7 /// NADSYN1 (11734609_at) / Fold change /veh KRTAP5-7 /// NADSYN1 (11734609_at) / RFU RASL12 (11751679_a_at) / Fold change /veh RASL12 (11751679_a_at) / RFU CDKN2B (11736163_a_at) / Fold change /veh CDKN2B (11736163_a_at) / RFU PRF1 (11729649_at) / Fold change /veh PRF1 (11729649_at) / RFU, ZNF638 /// ZNF638-IT1 / Fold change vs veh, ZNF638 /// ZNF638-IT1 / RFU, PANK3 / Fold change vs veh, PANK3 / RFU, SH3YL1 / Fold change vs veh, SH3YL1 / RFU, ZEB2 / Fold change vs veh, ZEB2 / RFU, NRIP1 / Fold change vs veh, NRIP1 / RFU, PTTG1IP / Fold change vs veh, PTTG1IP / RFU, CAPN2 / Fold change vs veh, CAPN2 / RFU, MED14 / Fold change vs veh, MED14 / RFU, SNORA58 / Fold change vs veh, SNORA58 / RFU, C1orf63 / Fold change vs veh, C1orf63 / RFU, LRRFIP1 / Fold change vs veh, LRRFIP1 / RFU, NDUFAF7 / Fold change vs veh, NDUFAF7 / RFU, SLC12A2 / Fold change vs veh, SLC12A2 / RFU, IBTK / Fold change vs veh, IBTK / RFU, ESF1 / Fold change vs veh, ESF1 / Fold change vs veh, TMEM50B / RFU, TAOK1 / Fold change vs veh, TAOK1 / RFU, ACBD3 / Fold change vs veh, ACBD3 / RFU, TMA16 / Fold change vs veh, TMA16 / RFU, RWDD3 / Fold change vs veh, RWDD3 / RFU, BCAT1 / Fold change vs veh, BCAT1 / RFU, EDEM3 / Fold change vs veh, EDEM3 / RFU, TMEM33 / Fold change vs veh, TMEM33 / RFU, WDR75 / Fold change vs veh, WDR75 / RFU, AHCTF1 / Fold change vs veh, AHCTF1 / RFU, TFRC / Fold change vs veh, TFRC / RFU, ZDHHC17 / Fold change vs veh, ZDHHC17 / RFU, NOM1 / Fold change vs veh, NOM1 / RFU, ARL8B / Fold change vs veh, ARL8B / RFU, ZBTB11 / Fold change vs veh, ZBTB11 / RFU, TAMM41 / Fold change vs veh, TAMM41 / RFU, KIAA1704 /// LOC100996395 / Fold change vs veh, KIAA1704 /// LOC100996395 / RFU, ING1 / Fold change vs veh, ING1 / RFU, TRMT61B / Fold change vs veh, TRMT61B / RFU, FUBP3 / Fold change vs veh, FUBP3 / RFU, TP53 / Fold change vs veh, TP53 / RFU, TNKS2 / Fold change vs veh, TNKS2 / RFU, ZFP14 / Fold change vs veh, ZFP14 / RFU, ACTR2 / Fold change vs veh, ACTR2 / RFU, PPP3R1 / Fold change vs veh, PPP3R1 / RFU, PIK3R1 / Fold change vs veh, PIK3R1 / RFU, HNRNPA1 / Fold change vs veh, HNRNPA1 / RFU, RNF170 / Fold change vs veh, RNF170 / RFU, ZNF28 / Fold change vs veh, ZNF28 / RFU, RNGTT / Fold change vs veh, RNGTT / RFU, OGT / Fold change vs veh, OGT / RFU, BRD1 / Fold change vs veh, BRD1 / RFU, MARS / Fold change vs veh, MARS / RFU, ZNF655 / Fold change vs veh, ZNF655 / RFU, FAHD1 / Fold change vs veh, FAHD1 / RFU, BDP1 / Fold change vs veh, BDP1 / RFU, LRRCC1 / Fold change vs veh, LRRCC1 / RFU, ARID1A / Fold change vs veh, ARID1A / RFU, ZNF146 / Fold change vs veh, ZNF146 / RFU, ZNF330 / Fold change vs veh, ZNF330 / RFU, GPN3 / Fold change vs veh, GPN3 / RFU, C9orf123 / Fold change vs veh, C9orf123 / RFU, N4BP2L2 / Fold change vs veh, N4BP2L2 / RFU, ARFIP1 / Fold change vs veh, ARFIP1 / RFU, FAM179B / Fold change vs veh, FAM179B / RFU, BCL10 / Fold change vs veh, BCL10 / RFU, UHRF1BP1L / Fold change vs veh, UHRF1BP1L / RFU, BET1 / Fold change vs veh, BET1 / RFU, CNOT2 / Fold change vs veh, CNOT2 / RFU, ZNF268 / Fold change vs veh, ZNF268 / Fold change vs veh, ZNF507 / RFU, DGCR2 / Fold change vs veh, DGCR2 / RFU, WDSUB1 / Fold change vs veh, WDSUB1 / Fold change vs veh, HSP90B1 /// MIR3652 / RFU, ADSS / Fold change vs veh, ADSS / RFU, GK / Fold change vs veh, GK / RFU, ZNF148 / Fold change vs veh, ZNF148 / RFU, TAF9 / Fold change vs veh, TAF9 / RFU, SLC1A5 / Fold change vs veh, SLC1A5 / RFU, SLMO2 / Fold change vs veh, SLMO2 / RFU, ABCC4 / Fold change vs veh, ABCC4 / RFU, LOC101060439 /// RAP1B / Fold change vs veh, LOC101060439 /// RAP1B / RFU, RFX7 / Fold change vs veh, RFX7 / RFU, GTPBP10 / Fold change vs veh, GTPBP10 / RFU, CNEP1R1 / Fold change vs veh, CNEP1R1 / RFU, BIVM-ERCC5 /// ERCC5 / Fold change vs veh, BIVM-ERCC5 /// ERCC5 / RFU, ILF3 / Fold change vs veh, ILF3 / RFU 11762660_at / Fold change /veh 11762660_at / RFU VCAN (11757783_s_at) / Fold change /veh VCAN (11757783_s_at) / RFU DDX43 (11728927_at) / Fold change /veh DDX43 (11728927_at) / RFU KRT8 (11758188_x_at) / Fold change /veh KRT8 (11758188_x_at) / RFU NKD1 (11759106_at) / Fold change /veh NKD1 (11759106_at) / RFU SRD5A1 (11742802_a_at) / Fold change /veh SRD5A1 (11742802_a_at) / RFU TPSAB1 /// TPSB2 (11721975_s_at) / Fold change /veh TPSAB1 /// TPSB2 (11721975_s_at) / RFU GSTM3 (11746129_a_at) / Fold change /veh GSTM3 (11746129_a_at) / RFU IL23R (11737362_x_at) / Fold change /veh IL23R (11737362_x_at) / RFU TMEM51 (11727254_a_at) / Fold change /veh TMEM51 (11727254_a_at) / RFU PIWIL2 (11732686_x_at) / Fold change /veh PIWIL2 (11732686_x_at) / RFU ORM1 (11744905_x_at) / Fold change /veh ORM1 (11744905_x_at) / RFU CCDC152 (11743942_at) / Fold change /veh CCDC152 (11743942_at) / RFU ECM1 (11717891_a_at) / Fold change /veh ECM1 (11717891_a_at) / RFU IL23R (11748794_a_at) / Fold change /veh IL23R (11748794_a_at) / RFU TNFAIP8L3 (11732012_x_at) / Fold change /veh TNFAIP8L3 (11732012_x_at) / RFU MBOAT4 (11741988_at) / Fold change /veh MBOAT4 (11741988_at) / RFU 11764193_at / Fold change /veh 11764193_at / RFU TMEM53 (11763286_at) / Fold change /veh TMEM53 (11763286_at) / RFU MAGEB2 (11727129_at) / Fold change /veh MAGEB2 (11727129_at) / RFU TMEM200A (11744735_a_at) / Fold change /veh TMEM200A (11744735_a_at) / RFU CCDC152 (11751479_a_at) / Fold change /veh CCDC152 (11751479_a_at) / RFU FAM211A (11726209_a_at) / Fold change /veh FAM211A (11726209_a_at) / RFU RGS16 (11746705_a_at) / Fold change /veh RGS16 (11746705_a_at) / RFU VCAN (11755009_s_at) / Fold change /veh VCAN (11755009_s_at) / RFU RHOB (11743442_s_at) / Fold change /veh RHOB (11743442_s_at) / RFU RGS16 (11720943_a_at) / Fold change /veh RGS16 (11720943_a_at) / RFU RGS16 (11720944_at) / Fold change /veh RGS16 (11720944_at) / RFU, VPS4B / Fold change vs veh, VPS4B / RFU, CREB1 / Fold change vs veh, CREB1 / RFU, DNAJC13 / Fold change vs veh, DNAJC13 / RFU, GNAQ / Fold change vs veh, GNAQ / RFU, CDK5R1 / Fold change vs veh, CDK5R1 / RFU, ZRANB3 / Fold change vs veh, ZRANB3 / RFU, CUL4A / Fold change vs veh, CUL4A / RFU, CCNY / Fold change vs veh, CCNY / RFU, UFL1 / Fold change vs veh, UFL1 / RFU, COG3 / Fold change vs veh, COG3 / RFU, DIAPH2 / Fold change vs veh, DIAPH2 / RFU, SKA2 / Fold change vs veh, SKA2 / RFU, AFF3 / Fold change vs veh, AFF3 / RFU, LMF1 / Fold change vs veh, LMF1 / RFU, IPO11 / Fold change vs veh, IPO11 / RFU, DFFB / Fold change vs veh, DFFB / RFU, FOXP1 / Fold change vs veh, FOXP1 / RFU, CARD8 / Fold change vs veh, CARD8 / RFU, STRN3 / Fold change vs veh, STRN3 / RFU, ADK / Fold change vs veh, ADK / RFU, RASSF2 / Fold change vs veh, RASSF2 / RFU, WIPF1 / Fold change vs veh, WIPF1 / RFU, LARP1B / Fold change vs veh, LARP1B / RFU, RASA1 / Fold change vs veh, RASA1 / RFU, RB1 / Fold change vs veh, RB1 / RFU, PPFIA1 / Fold change vs veh, PPFIA1 / RFU, MAT2A / Fold change vs veh, MAT2A / RFU, CCT5 / Fold change vs veh, CCT5 / RFU, WDR92 / Fold change vs veh, WDR92 / RFU, CUX1 / Fold change vs veh, CUX1 / RFU, TTC7A / Fold change vs veh, TTC7A / RFU, TMEM135 / Fold change vs veh, TMEM135 / RFU, DEPTOR / Fold change vs veh, DEPTOR / RFU, CPM / Fold change vs veh, CPM / RFU, DNAJB6 / Fold change vs veh, DNAJB6 / RFU, CACNA2D3 / Fold change vs veh, CACNA2D3 / RFU, DTX4 / Fold change vs veh, DTX4 / RFU, TFCP2 / Fold change vs veh, TFCP2 / RFU, GMCL1 /// GMCL1P1 / Fold change vs veh, GMCL1 /// GMCL1P1 / RFU, AEBP2 / Fold change vs veh, AEBP2 / RFU, SNHG1 /// SNORD22 /// SNORD25 /// SNORD26 /// SNORD27 /// SNORD28 /// SNORD29 /// SNORD31 / Fold change vs veh, SNHG1 /// SNORD22 /// SNORD25 /// SNORD26 /// SNORD27 /// SNORD28 /// SNORD29 /// SNORD31 / Fold change (Aza/veh), C12orf56 (ProbeSet 11735607_a_at) / Fold change (ACY-1035/veh), C12orf56 (ProbeSet 11735607_a_at) / Fold change (Aza/veh), FGFR1OP (ProbeSet 11751329_s_at) / Fold change (ACY-1035/veh), FGFR1OP (ProbeSet 11751329_s_at) / Fold change (Aza/veh), VPS36 (ProbeSet 11739960_a_at) / Fold change (ACY-1035/veh), VPS36 (ProbeSet 11739960_a_at) / RFU SYPL1 (11715823_x_at) / Fold change /veh SYPL1 (11715823_x_at) / RFU IGFBP7 (11715501_s_at) / Fold change /veh IGFBP7 (11715501_s_at) / RFU REEP3 (11722064_at) / Fold change /veh REEP3 (11722064_at) / RFU IGLL1 (11728026_x_at) / Fold change /veh IGLL1 (11728026_x_at): dose or concentration left out as unconfirmed
Settings: MV-4-11 cells, 48 hours

**Q.** How did the “RFU A4GNT (11735810_at)” value turn out when Nc1ncn([C@@H]2O[C@H](CO)[C@@H](O)[C@H]2O)c(=O)n1 [azacitidine] was run?
**A.** 14.85 RFU
